ChEMBL document CHEMBL1129848, “Synthesis and evaluation of imidazolidinones as nonpeptide HIV-protease inhibitors” (Bioorg Med Chem Lett, 1997)

Each compound was assayed against T1, Human immunodeficiency virus type 1 protease (Human immunodeficiency virus 1, UniProt Q72874) (assay: Compound was tested for the inhibitory activity against HIV-protease).

| Structure (SMILES) | Ki |
| --- | --- |
| O=C1N(Cc2cccc(CO)c2)[C@H](Cc2ccccc2)[C@@H](Cc2ccccc2)N1Cc1cccc(CO)c1 | 15.5 µM |

Each compound was assayed against T1, Human immunodeficiency virus type 1 protease (assay: Inhibition of HIV-protease).

| Structure (SMILES) | Ki |
| --- | --- |
| O=C1N(CC2CC2)[C@H]([C@@H](F)Cc2ccccc2)[C@@H]([C@@H](F)Cc2ccccc2)N1CC1CC1 | 980 nM |
| O=C1N(Cc2cccc(CO)c2)[C@H](CCc2ccccc2)[C@@H](CCc2ccccc2)N1Cc1cccc(CO)c1 | 55 nM |
| O=C1N(Cc2cccc(CO)c2)[C@H](Cc2ccccc2)CC[C@@H](Cc2ccccc2)N1Cc1cccc(CO)c1 | 170 nM |
| O=C1N(Cc2cccc(O)c2)[C@H]([C@@H](F)Cc2ccccc2)[C@@H]([C@@H](F)Cc2ccccc2)N1Cc1cccc(O)c1 | 560 nM |
| O=C1N(Cc2ccc3ccccc3c2)[C@H]([C@@H](F)Cc2ccccc2)[C@@H]([C@@H](F)Cc2ccccc2)N1Cc1ccc2ccccc2c1 | 1400 nM |
| O=C1N(Cc2cccc(CO)c2)[C@H](CCc2ccccc2)C[C@@H](Cc2ccccc2)N1Cc1cccc(CO)c1 | 99 nM |
| O=C(Oc1cccc(CN2C(=O)N(Cc3cccc(OC(=O)c4ccccc4)c3)[C@H]([C@@H](F)Cc3ccccc3)[C@H]2[C@@H](F)Cc2ccccc2)c1)c1ccccc1 | 425 nM |
| COC(=O)c1cccc(CN2C(=O)N(Cc3cccc(C(=O)OC)c3)[C@H](CCc3ccccc3)[C@H]2[C@@H](Br)Cc2ccccc2)c1 | 920 nM |
| N=C(NO)c1cccc(CN2C(=O)N(Cc3cccc(C(=N)NO)c3)[C@H](CCc3ccccc3)[C@H]2CCc2ccccc2)c1 | 17 nM |
| COC(=O)c1cccc(CN2C(=O)N(Cc3cccc(C(=O)OC)c3)[C@H](CCc3ccccc3)[C@H]2CCc2ccccc2)c1 | 470 nM |
| O=C1N(Cc2cccc(CO)c2)[C@H]([C@@H](O)Cc2ccccc2)[C@@H](CCc2ccccc2)N1Cc1cccc(CO)c1 | 23 nM |
| COC(=O)c1cccc(CN2C(=O)N(Cc3cccc(C(=O)OC)c3)[C@H](CCc3ccccc3)[C@H]2[C@@H](O)Cc2ccccc2)c1 | 100 nM |
| C=CCN1C(=O)N(CC=C)[C@H]([C@@H](F)Cc2ccccc2)[C@H]1[C@@H](F)Cc1ccccc1 | 2500 nM |
